From US20220274987A1, “PYRAZINO [1,2-B]QUINAZOLINE-3,6-DIONES DERIVATIVES, THEIR PRODUCTION AND USES THEREOF” (CIIMAR -CENTRO INTERDISCIPLINAR DE INVESTIGAÇÃO MARINHA E …, priority 2019, published 2022)
≈ marks a conversion by molar mass, not a printed value. Where two headings read alike, the source gives them in different places.

Experiments:
[1] = test system: Plasmodium falciparum 3D7 strain; assay: In vitro susceptibility assay of P. falciparum, SYBR Green I; type: cell-based; conditions: for IC50: Plasmodium falciparum; for antimalarial activity (in words): P. falciparum 3D7
Procedure: The principle of the in vitro susceptibility test to malaria is to assess the degree of development of parasites P. falciparum in the presence of different concentrations of the compounds.
In the present disclosure, the antimalarial activity was also evaluated. Each compound was lyophilized and solubilized in DMSO (Sigma-Aldrich) to obtain a final concentration of 5 mM. Some intermediate dilutions were made to achieve the final concentration of 10 μM in the first well of the plate.
In an embodiment, the culture of P. falciparum was carried out as follows. […] Parasites were cultivated at 5% hematocrit, 37° C. and atmosphere with 5% of CO2, human serum was replaced with 0.5% AlbuMAXII (Invitrogen™) in the culture medium. Synchronized cultures were obtained by treatments with a 5% (m/v) solution of D-sorbitol (Sigma-Aldrich).
In the present disclosure, the in vitro susceptibility assay of P. falciparum using SYBR Green I was carried out as follows. […] Briefly, early ring stage parasites (>80% of rings, 3% haematocrit and 1% parasitaemia) were tested in duplicate in a 96-well plate and incubated with the compounds for 48 h (37° C., 5% CO2), parasite growth was assessed with SYBR Green I (Thermo Fisher Scientific). Each compound was tested in concentrations ranging from 10 to 0.001 μM. Fluorescence intensity was measured with a microplate reader with excitation and emission wavelengths of 485 and 535 nm, respectively, and analysed by nonlinear regression using GraphPad Prism 5 demo version to determine

[2] = test system: E. faecalis ATCC 29212; assay: MIC/MBC broth dilution (CLSI), E. faecalis reference strain; type: cell-based, Enterococcus faecalis
From the text: (§1) In the present disclosure, two Gram-positive—Staphylococcus aureus ATCC 29213 and Enterococcus faecalis ATCC […] and two Gram-negative—Escherichia coli ATCC 25922 and Pseudomonas aeruginosa ATCC 27853—reference bacterial strains were used. When it was possible to determine a minimal inhibitory concentration (MIC) value for these strains, clinically relevant strains were also used. These included methicillin-resistant S. uareus (MRSA) 66/1, isolated from public buses, as well as a isolate sensitive to the most commonly used antibiotic families (S. aureus 40/61/24) and two vancomycin-resistant Enterococcus (VRE) strains isolated from river water, E. faecalis B3/101 and E. faecalis A5/102, which is sensitive to ampicillin. Frozen stocks of all strains were grown on Mueller-Hinton agar (MH-BioKar Diagnostics, Allone, France) at 37° C. for 24 h. All bacterial strains were sub-cultured on MH agar and incubated overnight at 37° C. before each assay, in order to obtain fresh cultures.
(§2) An initial screening of the antibacterial activity of the compounds was performed by the Kirby-Bauer disk diffusion method, as recommended by the Clinical and Laboratory Standards institute (CLSI). Briefly, sterile 6 mm blank paper disks (Oxoid, Basingstoke, England) impregnated with 15 μg of each compound were placed on inoculated MH agar plates. A blank disk with DMSO was used as a negative control. MH inoculated plates were incubated for 18-20 hours at 37° C. At the end of the incubation, the inhibition halos where measured. The minimal inhibitory concentration (MIC) was used to determine the antibacterial activity of each compound, in accordance with the recommendations of the CLSI. Two-fold serial dilutions of the compounds were prepared in Mueller-Hinton Broth 2 (MHB2-Sigma-Aldrich, St. Louis, Mo., USA) within the concentration range of 0.062-64 μg/mL. Cefotaxime (CTX) ranging between 0.031-16 μg/mL was used as a control. Sterility and growth controls were included in each assay. Purity check and colony counts of the inoculum suspensions were also performed in order to ensure that the final inoculum density closely approximates the intended number ([…]). The MIC was determined as the lowest concentration at which no visible growth was observed. The minimal bactericidal concentration (MBC) was assessed by spreading 10 μL of culture collected from wells showing no visible growth on MH agar plates. The MBC was determined as the lowest concentration at which no colonies grew after 16-18 hours incubation at 37° C. These assays were performed in duplicate.

[3] = test system: E. faecalis A5/102 (VRE); assay: MIC/MBC broth dilution (CLSI), VRE sensitive to ampicillin; type: cell-based; conditions: Enterococcus faecalis
From the text: as §1, §2

[4] = test system: S. aureus 66/1 (MRSA); assay: MIC/MBC broth dilution (CLSI), MRSA; type: cell-based; conditions: Staphylococcus aureus
From the text: as §1, §2

[5] = test system: S. aureus 40/61/24; assay: MIC/MBC broth dilution (CLSI), sensitive clinical isolate; type: cell-based; conditions: Staphylococcus aureus
From the text: as §1, §2

[6] = test system: E. faecalis B3/101 (VRE); assay: MIC/MBC broth dilution (CLSI), VRE; type: cell-based; conditions: Enterococcus faecalis
From the text: as §1, §2

[7] = test system: Staphylococcus aureus ATCC 29213; assay: MIC/MBC broth dilution (CLSI), S. aureus reference strain; type: cell-based; conditions: for MBC / MIC: Staphylococcus aureus, ATCC29213
From the text: as §1, §2

[8] = P. falciparum (3D7), 48 h, read-out: IC50
[9] = Enterococcus faecalis, ATCC29212
[10] = S. aureus ATCC 29213, read-out: MIC
[11] = Enterococcus faecalis, ATCC29212, read-out: MIC
[12] = S. aureus 40/61/24, read-out: MIC

IC50 [1, 8] [µM]	SMILES	MBC [2, 9] [µg/mL]	MBC [4] [µg/mL]	MIC [4] [µg/mL]	MBC ([5]; S. aureus 40/61/24) [µg/mL]	antibacterial (inhibitory) effect (in words) ([7]; S. aureus ATCC 29213)	MBC ([7]; S. aureus ATCC 29213) [µg/mL]	MIC [7, 10] [µg/mL]	other results
	CCN(CC)CCCC(C)Nc1ccnc2cc(Cl)ccc12 (stereo not drawn) [CQ (6), chloroquine, reference compound]								IC50 ([1]; 3D7): 0.01508 ± 8e-05 µM
	CC(C)[C@@H]1NC(=O)[C@H](Cc2c[nH]c3ccccc23)n2c1nc1ccccc1c2=O [Compound 10]								antimalarial activity (in words) [1]: inactive
0.15 ± 0.05	CC(C)[C@H]1NC(=O)[C@@H](Cc2c[nH]c3ccccc23)n2c1nc1ccccc1c2=O [Compound 13]								antimalarial activity (in words) [1]: decreased activity
	CC(C)C[C@@H]1NC(=O)[C@H](Cc2c[nH]c3ccccc23)n2c1nc1ccccc1c2=O [Compound 14]								antimalarial activity (in words) [1]: inactive
2 ± 0.32	CC(C)C[C@H]1NC(=O)[C@H](Cc2c[nH]c3ccccc23)n2c1nc1ccccc1c2=O [Compound 15]								
0.47 ± 0.22	CC(C)C[C@H]1NC(=O)[C@@H](Cc2c[nH]c3ccccc23)n2c1nc1ccccc1c2=O [Compound 17]								antimalarial activity (in words) [1]: decreased activity
4.18 ± 0.03	O=C1N[C@H](Cc2ccc(O)cc2)c2nc3ccccc3c(=O)n2[C@H]1Cc1c[nH]c2ccccc12 [Compound 25]								
3.68 ± 0.62	C[C@H]1NC(=O)[C@@H](Cc2c[nH]c3ccccc23)n2c1nc1ccccc1c2=O [Compound 26]								
	CC(C)[C@@H]1NC(=O)[C@@H](Cc2c[nH]c3ccccc23)n2c1nc1ccc(Cl)cc1c2=O [Compound 27, (1S, 4R)-4-((1H-indol-3-yl)methyl)-8-chloro-1-isopropyl-1,2-dihydro-6H-pyrazino[2,1-b]quinazoline-3,6(4H)-dione]	> 64	> 64	> 64	> 64	inhibitory effect	> 64	32 (≈ 76 µM)	MIC [2]: 64 µg/mL (≈ 152 µM); antibacterial (inhibitory) effect (in words) [2]: inhibitory effect; MIC [2, 9]: 32 µg/mL (≈ 76 µM); MBC [3]: > 64 µg/mL; MIC [3]: 64 µg/mL (≈ 152 µM); MIC ([5]; 40/61/24): 64 µg/mL (≈ 152 µM); MBC [6]: > 64 µg/mL; MIC [6]: > 64 µg/mL
	CC(C)C[C@@H]1NC(=O)[C@@H](Cc2c[nH]c3ccccc23)n2c1nc1ccc(Cl)cc1c2=O [Compound 28]	> 64	> 64	> 64	> 64	inhibitory effect	> 64	32 (≈ 73.6 µM)	antibacterial (inhibitory) effect (in words) [2]: inhibitory effect; MIC [2, 9]: 32 µg/mL (≈ 73.6 µM); MBC [3]: > 64 µg/mL; MIC [3]: 64 µg/mL (≈ 147 µM); MIC ([5]; 40/61/24): 64 µg/mL (≈ 147 µM); MBC [6]: > 64 µg/mL; MIC [6]: > 64 µg/mL
	CC[C@H](C)[C@@H]1NC(=O)[C@@H](Cc2c[nH]c3ccccc23)n2c1nc1ccc(Cl)cc1c2=O [Compound 29, (1S,4R)-4-((1H-indol-3-yl)methyl)-1-((S)-sec-butyl)-8-chloro-1,2-dihydro-6H-pyrazino[2,1-b]quinazoline-3,6(4H)-dione]	> 64	> 64	> 64	> 64	inhibitory effect	> 64		antibacterial (inhibitory) effect (in words) [2]: inhibitory effect; MIC [2, 9]: 32 µg/mL (≈ 73.6 µM); MBC [3]: > 64 µg/mL; MIC [3]: 64 µg/mL (≈ 147 µM); MIC ([5]; 40/61/24): 64 µg/mL (≈ 147 µM); MBC [6]: > 64 µg/mL; MIC [6]: > 64 µg/mL; MIC [7]: 16 µg/mL (≈ 36.8 µM)
	CC(C)[C@@H]1NC(=O)[C@@H](Cc2c[nH]c3ccccc23)n2c1nc1c(Cl)cc(Cl)cc1c2=O [Compound 30, (1S, 4R)-4-((1H -indol-3-yl)methyl)-8,10-dichloro-1-isopropyl-1,2-dihydro-6H-pyrazino[2,1-b]quinazoline-3,6(4H)-dione]	> 64	> 64	> 64	> 64	inhibitory effect	> 64	16 (≈ 35.1 µM)	MIC [2, 11]: > 64 µg/mL; MIC [5, 12]: > 64 µg/mL
	CCC(C)[C@@H]1NC(=O)[C@@H](Cc2c[nH]c3ccccc23)n2c1nc1c(Cl)cc(Cl)cc1c2=O (stereo partly drawn) [Compound 32, (1S, 4R)-4((1H-indol-3-yl)methyl)-1-((S)-sec-butyl) 8,10-dichloro-1,2-dihydro-6H-pyrazinoi[2,1-b]quinazoline-3,6(4H)-dione]	> 64	> 64	8 (≈ 17 µM)	> 64	inhibitory effect	> 64	4 (≈ 8.52 µM)	IC50 ([1]; 3D7, 48 h): 1.51 ± 0.53 µM; MIC [2, 11]: > 64 µg/mL; MIC ([5]; 40/61/24): 8 µg/mL (≈ 17 µM)
	CC(C)C[C@@H]1NC(=O)[C@@H](Cc2c[nH]c3ccccc23)n2c1nc1ccc(I)cc1c2=O [Compound 35, (1S,4R)-4-((1H-indol-3-yl)methyl)-8-iodo-1-isobutyl-1,2-dihydro-6H-pyrazino[2,1-b]quinazoline-3,6(4H)-dione]	> 64	> 64	> 64	> 64	inhibitory effect	> 64	16 (≈ 30.4 µM)	MIC [2, 11]: > 64 µg/mL; MIC [5, 12]: 64 µg/mL (≈ 122 µM)
	CC(C)C[C@@H]1NC(=O)[C@@H](Cc2c[nH]c3ccccc23)n2c1nc1ccc(Br)cc1c2=O [Compound 36, (1s,4R)-4-((1H-indol-3-yl)methyl)-8-bromo-1-isobutyl-1,2-dihydro-6H-pyrazino[2,1-b]quinazoline-3,6(4H)-dione]	> 64	> 64	> 64	> 64	inhibitory effect	> 64	16 (≈ 33.4 µM)	MIC [2, 11]: > 64 µg/mL; MIC [5, 12]: > 64 µg/mL
	O=C1N[C@@H](Cc2ccc(OCc3ccccc3)cc2)c2nc3c(Cl)cc(Cl)cc3c(=O)n2[C@@H]1Cc1c[nH]c2ccccc12 [Compound 38]								IC50 ([1]; 3D7, 48 h): 4 ± 0.02 µM
0.73 ± 0.07	CC(C)C[C@@H]1NC(=O)[C@@H](Cc2c[nH]c3ccccc23)n2c1nc1ccc(O)cc1c2=O [Compound 39]								
4 ± 0.02	CC(C)C[C@@H]1NC(=O)[C@@H](Cc2c[nH]c3ccccc23)n2c1nc1cnccc1c2=O [Compound 42, (1S,4R)-4-((1H-indol-3-yl)methyl)-1-isobutyl-1,2-dihydro-6H-pyrazino[1,2-α]pyrido[3,4-d]pyrimidine-3,6(4H)-dione]								
3.76	CC(C)C[C@@H]1NC(=O)[C@@H](Cc2c[nH]c3ccccc23)n2c1nc1ncccc1c2=O [Compound 43]								
1.02 ± 0.27	CC(C)C[C@@H]1NC(=O)[C@@H](Cc2cc3ccccc3[nH]2)n2c1nc1cc(-c3nnnn3C)ccc1c2=O [Compound 44, (1S,4R)-4-((1H-indol-2-yl)methyl)-1-isobutyl-9-(1-methyl-1H-tetrazol-5-yl)-1,2-dihydro-6H-pyrazino [2,1-b]quinazoline-3,6(4H)-dione]								antimalarial activity (in words) [1]: weak activity
